The values below come from a melting point compilation (Tetko et al.).

SMILES strings stand for the structures.

As a reminder, the melting point is the temperature of the solid-liquid transition. As for `ON=C(c1ccccc1)c1ccccc1`, the melting point fell in the range of 140 to 144 °C.

For `CC12CCC(C(C(=O)c3cccc4ccccc34)C1=O)C2(C)C` (stereo not drawn), the melting point came to 104 °C.

The compound `COc1cc(Cl)c(Cl)cc1Cl` yielded a melting point of 77.5 °C.

With `NNc1ccc(C(=O)O)cc1`, the melting point was 205 °C.

As to `Cc1c(I)ccnc1Cl`, the melting point stood at 107 °C.

Regarding `Cc1ccc(CNC2=CC(=O)c3ccccc3C2=O)nc1`, the melting point is 134 to 136 °C.

Turning to `COc1ccc(Cl)c(N)c1`, the melting point was 27 °C.

The compound `O=C=NC12CC3CC(CC(C3)C1)C2` gave a melting point of 144 to 146 °C.

`O=C(O)c1c(Cl)ccc2cc(Cl)cnc12` came in with a melting point of 274 °C.

Take `Cc1cccc(/N=N/c2c(N)nn3c(-c4ccccc4)cc(=O)[nH]c23)c1`: the melting point turned out to be 296 °C.

Compound `Nc1ccc(C(=O)O)cc1N` showed a melting point of 215 °C.

Take `Cc1cc(Cl)ccc1OC(C)C(=O)Nc1ccc2nc(SCc3ccccc3)sc2c1` (stereo not drawn): the melting point is 168 °C.

`COc1ccc(S(=O)(=O)Cl)c(OC)c1` came in with a melting point of 72 °C.

In turn, `CCCCC(CC)COC(=O)C=CC(=O)OCC(CC)CCCC` (stereo not drawn) registered a melting point of -10 °C.

In the case of `Nc1nnc(-c2ccccc2)c(-c2ccccc2)n1`, the melting point is 177 to 179 °C.

`Nc1ncnc2c1ncn2C1OC(COP(=O)(O)OP(=O)(O)OP(=O)(O)O)C(O)C1O` (stereo not drawn): the melting point was 176 °C.

Consider `COc1ccccc1C(=O)Oc1ccc(/C=C/C(=O)c2ccccc2)cc1`, for which the melting point turned out to be 115 °C.

Take `CN1CCOc2cc(C(=O)Cl)ccc21`: the melting point lay in the range of 96 to 100 °C.

`OCc1ccc2nccn2c1` had a melting point of 106 to 108 °C.

The compound `O=C1C=CC(=O)N1c1cccnc1Cl` showed a melting point of 115 to 117 °C.

As for `COc1cc(CCl)ccc1OCc1ccccc1`, the melting point was 73 °C.

Turning to `O=P(O)(O)OCC(O)CO` (stereo not drawn), the melting point was -25 °C.

For the compound `CCOC(=O)C(=O)CC(C)=O`, the melting point lay in the range of 16 to 18 °C.

`Cc1ccc(-c2ccc(C=CC(=O)c3ccco3)o2)cc1` gave a melting point of 110 to 111 °C.

In turn, `CCN(CCO)S(=O)(=O)C(F)(F)C(F)(F)C(F)(F)C(F)(F)C(F)(F)C(F)(F)C(F)(F)C(F)(F)F` registered a melting point of 55 to 60 °C.

`COC(=O)c1ccc(Br)cn1`: the melting point was found to be 101 °C.

`c1ccc2c(c1)cc1ccc3c4ccccc4cc4ccc2c1c43` gave a melting point of 317 °C.

Compound `N#Cc1ccnc(N2CCCC2)c1` came in with a melting point of 79 to 80 °C.

As to `CC1=NNC(=O)CC1`, the melting point was 79 to 83 °C.

The compound `NC(=O)c1ccc(F)cc1C(F)(F)F` gave a melting point of 136 °C.

Compound `CN(C)CCN(C)CCN(C)C` yielded a melting point of 18 °C.

The compound `CC(=O)CCc1ccccc1` displayed a melting point of -13 °C.

In the case of `C=C[Si](Cl)(Cl)Cl`, the melting point is -95 °C.

On to `CC(C)(C)c1ccc(C2CCC3(CC2)Cc2ccc(O)cc2C3)cc1` (stereo not drawn), for which the melting point turned out to be 156 °C.

In the case of `Clc1c(Cl)c(Cl)c2c(c1Cl)OC(c1ccccc1)O2`, the melting point is 115 °C.

For the compound `Cc1cc(C2(c3cc(C)c(O)c(Br)c3C)OS(=O)(=O)c3ccccc32)c(C)c(Br)c1O`, the melting point is 218 °C.

With `COC(=O)C1=C(N)Oc2cc(C)n(CCc3ccccc3)c(=O)c2C1c1ccc(OC)cc1` (stereo not drawn), the melting point was 211 to 213 °C.

The compound `NNC(=S)Nc1ccc(F)cc1` returned a melting point of 171 to 172 °C.

Consider `O=C(O)CCCc1ccc(Br)cc1`, for which the melting point was 67 to 69 °C.

In the case of `O=C1C(=C2C=Cc3ccccc3N2)C(=O)c2ccccc21`, the melting point lay in the range of 240 to 241 °C.

In the case of `CC(C)(C)P(c1ccccc1-c1ccccc1)C(C)(C)C`, the melting point lay in the range of 84 to 87 °C.

The compound `CCOC(=O)C1=NN(c2ccccc2)C(=O)C1C(Cl)C1C(=O)N(c2ccccc2)N=C1C(=O)OCC` (stereo not drawn) registered a melting point of 221 °C.

`Cc1nc(C2CCN(C(=O)OC(C)(C)C)CC2)sc1C=O` returned a melting point of 220 °C.

On to `OC1CCCCCCC1`, for which the melting point was found to be 25.1 °C.

Compound `O=[N+]([O-])c1ncccc1O` displayed a melting point of 71 °C.

Compound `CCOC(=O)c1c[nH]c(=S)nc1N` came in with a melting point of 256 to 258 °C.

For the compound `Cc1nc(-c2ccccc2)c(C=O)s1`, the melting point was 72 to 75 °C.

As to `CSc1n[nH]c(N)c1C(N)=O`, the melting point came out at 176 °C.

In the case of `O=C(c1ccc(F)cc1)c1ccccc1F`, the melting point lay in the range of 22 to 24 °C.

`O=C(OCc1ccccc1)N1CCC(CBr)CC1` gave a melting point of 68 °C.

Turning to `Nc1ncc(Cl)cc1[N+](=O)[O-]`, the melting point worked out at 193 °C.

`O=C(O)Cc1ccc(Cl)cc1C(F)(F)F` yielded a melting point of 89 °C.

The compound `Oc1c(F)cc(F)cc1F` showed a melting point of 49.5 °C.

As to `Nc1ccc(CC(=O)O)cc1`, the melting point was found to be 200 °C.

As to `CCc1c(C)ccc2c1CCC1C2CCC2CC(O)CCC21C` (stereo not drawn), the melting point came to 172 °C.

For the compound `O=C1CCC(c2ccccc2)O1` (stereo not drawn), the melting point was found to be 36.5 °C.

For the compound `Cc1ccc(S(=O)(=O)N(Cl)Cl)cc1`, the melting point was found to be 83 °C.

In the case of `CC(=O)c1sccc1Br`, the melting point is 43 °C.

For the compound `Oc1ccnc(S)n1`, the melting point was 300 °C.

The compound `CC(=O)c1ccc(N2C(=O)C=CC2=O)cc1` came in with a melting point of 156 °C.

Compound `CC1CCC(C(C)C)C(OC(=O)OC2CC(C)CCC2C(C)C)C1` (stereo not drawn) came in with a melting point of 106 °C.

`c1ccc(OCCOCCOc2ccccc2)cc1`: the melting point was 66 °C.

`O=Cc1coc2ccccc2c1=O` showed a melting point of 151 to 155 °C.

As for `Cc1cc(=O)oc2cc(O)cc(O)c12`, the melting point came to 299 °C.

As for `COc1ccc(-c2cc[nH]n2)cc1`, the melting point lay in the range of 127 to 130 °C.

On to `Cc1noc(-c2ccccc2C(=O)O)n1`, for which the melting point was 152 to 153 °C.

Turning to `O=C(OCC(=O)N1CCC(O)CC1)c1ccccc1`, the melting point worked out at 122 °C.

Turning to `OC1CSC(O)CS1` (stereo not drawn), the melting point was in the range of 108 to 145 °C.

In the case of `CN1CCN(C)C(C(=O)NN)C1` (stereo not drawn), the melting point turned out to be 113 °C.

On to `c1cnc(SSc2ncccn2)nc1`, for which the melting point is 139 to 141 °C.

In turn, `CC(C)(C)c1ccc(S(=O)(=O)NCCBr)cc1` returned a melting point of 76 to 78 °C.

Compound `O=C(C=Cc1ccccc1)c1ccc(O)cc1` had a melting point of 174 to 178 °C.

For the compound `CC1(C)CC(=O)c2cc(-c3ccccc3)n(Cc3ccc(Cl)cc3)c2C1`, the melting point lay in the range of 115 to 117 °C.

Compound `O=C(c1ccc(-c2ccccc2)cc1)c1ccc(-c2ccccc2)cc1` gave a melting point of 238 °C.

As to `OC1CCC(Cl)CC1` (stereo not drawn), the melting point turned out to be 82.5 °C.

Turning to `CC(S)C(=O)NCC(=O)O` (stereo not drawn), the melting point was found to be 96 °C.

As to `O=C(/C=C/c1ccc(-c2ccc(Cl)cc2)o1)c1ccco1`, the melting point was 148 °C.

In the case of `O=C(Cl)c1ccc(N=Nc2ccccc2)cc1`, the melting point lay within 93 to 97 °C.

On to `CCNC(=O)Nc1ncc([N+](=O)[O-])s1`, for which the melting point is 228 °C.

For `CCCCCCCCCCCCCCCCCCCc1ccccc1`, the melting point amounted to 40 °C.

For `O=C(O)COc1ccc(OC(F)(F)F)cc1`, the melting point is 84 to 86 °C.

`Cc1noc(-c2ccccc2Br)n1` had a melting point of 43 to 44 °C.

`N#CC1C(=O)CC(=O)CC1c1ccccc1` (stereo not drawn): the melting point turned out to be 177 °C.

Compound `COc1cc(C)c(CCl)cc1CCl` came in with a melting point of 78 °C.

Take `Cc1ccc(C)nc1`: the melting point is -16 °C.

Compound `O=c1n(-c2ccccc2)c(=O)n2n1C1OC3CCC1C32` (stereo not drawn) registered a melting point of 144 °C.

Compound `N#Cc1cnc(Br)nc1N` had a melting point of 250 °C.

As for `ClCc1noc(-c2cccs2)n1`, the melting point was in the range of 67 to 68 °C.

Consider `CC1=C(C(=O)Nc2ccccc2)CCCO1`, for which the melting point was found to be 110 °C.

For the compound `Cn1c(=O)c2c(ncn2CCO)n(C)c1=O`, the melting point is 158 °C.

The compound `O=C(O)c1cc2cnccc2nc1C(F)(F)F` had a melting point of 233 to 235 °C.

`CCc1ccc(O)c(O)c1` showed a melting point of 39 °C.

Regarding `CC(C)(C)C(=O)CS(=O)(=O)c1ccc(Cl)cc1`, the melting point worked out at 97 °C.

The compound `CC12CCC(=O)C=C1CCC1C2C(O)CC2(C)C(C(=O)CO)CCC12` (stereo not drawn) displayed a melting point of 181 °C.

For `COc1c(CC(O)C(C)C)c(=O)n(C)c2c(OC)cccc12` (stereo not drawn), the melting point was 86.5 °C.

On to `Nc1ccc2c(c1)CS(=O)(=O)C2`, for which the melting point lay in the range of 186 to 187 °C.

On to `Nc1cnccc1I`, for which the melting point was determined as 61 °C.

`Cc1nc(-c2ccc(C#N)cc2)cs1` displayed a melting point of 154 °C.

As to `Brc1ccc2ccc3cccc4ccc1c2c34`, the melting point turned out to be 95 °C.

`Cc1nc(CO)c(C)o1`: the melting point was 73 °C.

For the compound `Cc1n[nH]c(=S)n(N)c1=O`, the melting point was 183 to 184 °C.

Regarding `CCOC(=O)c1cc(C)nc2ccc(Br)cc12`, the melting point is 110 to 111 °C.

As for `NC(=O)c1cc(Br)cc(Br)c1`, the melting point is 182 °C.

Regarding `O=C(Nc1cccc2ccccc12)C(C(F)(F)F)C(F)(F)F`, the melting point came to 224 °C.

The compound `CC(=O)C1CCC2C3C=CC4=CC(=O)CCC4(C)C3CCC12C` (stereo not drawn) yielded a melting point of 170 °C.

`CCc1cccc(CC)c1NC(=O)CCl` showed a melting point of 130 °C.

In turn, `N#Cc1ccc(Oc2ccccc2)cc1` had a melting point of 45 to 48 °C.

`CC(NC(CCc1ccccc1)C(=O)O)C(=O)N1CCCC1C(=O)O` (stereo not drawn) had a melting point of 150 °C.

`CC(=O)O[Si](OC(C)=O)(OC(C)(C)C)OC(C)(C)C` gave a melting point of -4 °C.

`O=S(=O)(Cl)c1ccccc1Cl` registered a melting point of 27 °C.

As to `Cc1cccc(OP(=O)(Oc2cccc(C)c2)Oc2cccc(C)c2)c1`, the melting point came out at 25.5 °C.

As to `O=C1c2ccccc2C(O)(O)C1(O)C1(O)C(=O)c2ccccc2C1(O)O` (stereo not drawn), the melting point turned out to be 240 °C.

In the case of `c1ccc2c(c1)ccc1nc3ccc4ccccc4c3cc12`, the melting point stood at 216 °C.
